The text below walks through data of paper PMC10033563, “Unique alcohol dehydrogenases involved in algal sugar utilization by marine bacteria” (Applied Microbiology and Biotechnology, 2023).

The target of data set [1] is T1, FoADH (Formosa agariphila, UniProt T2KM87).
T1 construct: gene BN863_21030; full-length from genomic DNA in pET28a, N-terminal Strep-tag, E. coli BL21(DE3); homotetramer; 2 Zn per monomer
T1 sequence (T2KM87 1-370): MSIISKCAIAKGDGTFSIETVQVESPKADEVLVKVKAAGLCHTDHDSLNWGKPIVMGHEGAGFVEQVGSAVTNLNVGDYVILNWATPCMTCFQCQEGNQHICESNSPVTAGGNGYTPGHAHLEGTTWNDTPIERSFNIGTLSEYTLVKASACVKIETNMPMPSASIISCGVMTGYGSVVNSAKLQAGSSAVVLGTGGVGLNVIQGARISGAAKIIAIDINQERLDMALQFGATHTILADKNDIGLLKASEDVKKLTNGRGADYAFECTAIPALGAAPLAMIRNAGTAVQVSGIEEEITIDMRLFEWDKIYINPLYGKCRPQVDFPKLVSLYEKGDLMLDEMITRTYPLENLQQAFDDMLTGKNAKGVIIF
Briefly: X-ray crystal structure. In kind it is binding. The note with it: co-crystallised with 20 mM NAD+, pH 7.5; Zn2+ bound.

The target in data set [2] is T2, ZoADH (Zobellia galactanivorans, UniProt G0L712).
T2 construct: gene adhI; codon-optimized synthetic gene in pET28a, N-terminal Strep-tag, E. coli BL21(DE3); homotetramer; 2 Zn per monomer
T2 sequence (G0L712 entry or part of it): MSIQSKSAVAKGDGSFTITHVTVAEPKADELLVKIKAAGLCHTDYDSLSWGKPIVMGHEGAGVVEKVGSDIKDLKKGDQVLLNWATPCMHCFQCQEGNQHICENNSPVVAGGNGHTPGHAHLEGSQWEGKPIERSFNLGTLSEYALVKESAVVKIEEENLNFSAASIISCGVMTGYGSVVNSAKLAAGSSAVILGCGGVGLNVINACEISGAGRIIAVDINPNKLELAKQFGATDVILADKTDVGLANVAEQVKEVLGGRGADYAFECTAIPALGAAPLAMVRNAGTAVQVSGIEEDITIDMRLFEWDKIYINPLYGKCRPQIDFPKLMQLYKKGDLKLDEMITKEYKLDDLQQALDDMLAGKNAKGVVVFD
Briefly: X-ray crystal structure. In kind it is binding. The note with it: co-crystallised with 20 mM NAD+, pH 7.5; Zn2+ bound.

Data set [3] addresses zinc-dependent alcohol dehydrogenase from Zobellia galactanivorans DsijT (Zobellia galactanivorans DsijT). Briefly: crystal structure; enzyme (25 mg/mL) incubated with 20 mM NAD+ overnight; crystals from 0.1 M Tris-HCl pH 7.5, 0.2 M KCl, 20-22% (w/v) PEG 3350 at 22 °C; tetrameric interfaces analysed by PDBePISA; tetramer as a dimer of dimers.
Data set [4] concerns the molecule itself. Described as above.

With `NC(=O)c1ccc[n+]([C@@H]2O[C@H](COP(=O)(O)OP(=O)(O)OC[C@H]3O[C@@H](n4cnc5c(N)ncnc54)[C@H](O)[C@@H]3O)[C@@H](O)[C@H]2O)c1` [NAD^+], the X-ray crystal structure result is “deposited in the Protein Data Bank under PDB codes 8H2A (FoADH-NAD)” in data set [1]; “PDB codes 8H2A (FoADH-NAD) and 8H2B (ZoADH-NAD)” in data set [2].
As for “zinc-dependent alcohol dehydrogenase from Zobellia galactanivorans DsijT (enzyme)”, the stoichiometry N in data set [3] worked out at 4.

B1: zinc-dependent alcohol dehydrogenase from Formosa agariphila KMM 3901T (enzyme, UniProt T2KM87 1-370, looked up)
chain: T1 sequence (T2KM87 1-370)
notes: FoADH, zinc-dependent alcohol dehydrogenase of Formosa agariphila KMM 3901T (DSM-15362), amplified from genomic DNA into pET28a; the printed insert primers run from the ATG to the stop codon (TTA in the reverse primer); Crystallised with NAD+ and two zinc ions; also called FoADH; ADH; source: E. coli BL21 (DE3), purified (Strep-Tactin XT Sepharose, size exclusion chromatography)
For B1, the “stoichiometry N” value in data set [4] stood at 4.

One may read the stoichiometry N as the number of molecules, sites or subunits per partner or assembly.
